Biological target: M2 conductance domain (residues 22-62) (Influenza A virus, UniProt P0DOF5, C50S)
Type: biochemical, influenza A Udorn/1972 virus

Compound: NC12CC3CC(CC(C3)C1)C2 [amantadine]
- blockage of proton uptake: ~80%
- proton flux, initial slope of proton uptake per tetramer vs time: 30 protons per tetramer per second

— patent US8581584B2, “Membrane proteins, mechanisms of action and uses thereof” (priority 2010, dated 2013)
